Patent EP4205737A1, “COMPOSITION FOR PREVENTION, AMELIORATION, OR TREATMENT OF INFLAMMATORY DISEASES OR IMMUNE DISEASES COMPRISING GANCAONIN N AS ACTIVE INGREDIENT” (UNIVERSITY-INDUSTRY COOPERATION GROUP OF KYUNG HEE …, priority 2020, dated 2022)

Legend:
[1] = system: p38; assay: MAPK/NF-κB signaling pathway: p38 in LPS-stimulated A549 cells; type: cell-based, human
Procedure: RAW264.7 cells and A549 cells were dispensed into 6-well plates (1 × 10^6 cells/well) and cultured under conditions of 37°C and 5% CO2. After the culturing, the Raw 264.7 cells were treated with 1 µg/mL of lipopolysaccharide (LPS) and the A549 cells were treated with 5 µg/mL of lipopolysaccharide (LPS) and with 5 µM to 40 µM of gancaonin N, and the cells were cultured for 24 hours or 6 hours. Then, the cells were lysed using a lysis buffer. In addition, the left lung extracted from each mouse was lysed using RIPA buffer. SDS-PAGE electrophoresis was performed on the cell and tissue lysates to separate proteins by side, and 5% bovine serum albumin was used for culturing and for blocking antibodies against PGE2 (1:500), IL-1β (1:500), IL-6 (1:500), TNF-α (1:500), i-NOS (1:500), COX-2 (1:1000), P-ERK1/2 (1:1000), ERK1/2 (1:3000), P-p38 (1:1000), p38 (1:3000), NF-κB p65 (1:1000), Lamin B1 (1:1000), and β-actin (1: 5,000).
To identify through which pathway the anti-inflammatory response occurs, the role of gancaonin N in the MAPK/NF-κB signaling pathway was investigated. […]

[2] = system: A549 cells; assay: Cell viability analysis (MTT), A549 cells; type: cell-based, human; settings: A549 cells, 5, 10, 20, 40 µM, 24 hours, compared to the control group (FIG. 1B)
Procedure: RAW264.7 murine macrophage cells were purchased from Korean Cell Line Bank (in Seoul, South Korea). A549 human alveolar basal epithelial cells were purchased from American Type Culture Collection (in ATCC, MD, USA). The cells were cultured in DMEM medium (manufactured by Corning Inc., NY, USA) containing 10% FBS (manufactured by Gibco, NY, USA) and 1X antibiotic-antimycotic solution (manufactured by ABAM, Corning Inc., NY, USA) under conditions of 37°C and 5% CO2.
To evaluate the cytotoxicity of gancaonin N, RAW264.7 cells and A549 cells were dispensed into 96-well plates (1 × 10^4 cells/well) and cultured under conditions of 37°C and 5% CO2. After the culturing, the cells were treated with gancaonin N at concentrations of 5, 10, 20, or 40 µM for 24 hours, and MTT solution (5 mg/mL) was added to each well. After adding 100 µL of dimethyl sulfoxide (DMSO, manufactured by Sigma-Aldrich, St. Louis, MO, USA), the absorbance was measured at 540 nm using a microplate reader (manufactured by Bio-Rad Hercules, CA, USA).
To examine the cytotoxicity of gancaonin N, the inventors treated Raw264.7 cells and A549 cells with gancaonin N according to the methods of Examples 1 to 4 and then measured cell viability.

[3] = system: TNF-α; assay: Real-time PCR of TNF-α mRNA in LPS-stimulated A549 cells; type: cell-based, human; settings: LPS 5 ug/mL, 5 to 40 µM, 24 hours, effect proportional to amount (FIG. 3A)
Procedure: A549 cells were dispensed into 6-well plates (1 × 10^6 cells/well) and cultured under conditions of 37°C and 5% CO2. After the culturing, the A549 cells were treated with of 5 ug/mL of lipopolysaccharide (LPS) and with 5 µM to 40 µM of gancaonin N, and the cells were then cultured for 24 hours. Afterwards, total RNA was isolated from each treated cell using Hybrid-RTM (GeneAll, South Korea). The isolated total RNA (500 ng) was converted to cDNA sequentially through incubation at 55°C for 60 minutes using oligo (dT) and incubation at 85°C for 5 minutes, and the cDNA was stored at 4°C until being used. In addition, real-time quantitative PCR was performed using Universal SYBR Green Master Mix (Applied Biosystems, USA), and the cDNA was amplified under conditions described below. 95°C for 15 minutes, then 95°C for 30 seconds, 59°C for 30 seconds, and 72°C for 30 seconds were repeated 40 times. […]
To investigate the inhibitory effect of gancaonin on the expression levels of pro-inflammatory cytokines, the mRNA expression levels of tumor necrosis factor-α (hereinafter referred to as TNF-α), interleukin-1 beta (hereinafter referred to as IL-1β), and interleukin 6 (hereinafter referred to as IL-6) which are all known as pro-inflammatory cytokines were measured. […]

[4] = system: IL-1β; assay: Western blotting of IL-1β in lung of LPS-induced acute lung injury mouse model; type: in vivo, BALB/c mice; settings: mice, 10 mg/kg or 30 mg/kg intraperitoneally, LPS-induced ALI, Western blotting (FIG. 8)
Procedure: 25 6-week-old female BALB/c mice having a weight of 18g to 20 g were purchased from BioLink (DBL CO., Eumseong, Chungcheongbuk-do, Korea), and reared in the animal laboratory of KyungHee University. To establish an LPS-induced acute lung injury model, all the mice were divided into five groups each group of which consisted of 5 mice, and the five groups were referred to as control, vehicle (only LPS treatment), gancaonin N (10 mg/kg), gancaonin N (30 mg/kg), and dexamethasone (3 mg/kg). Gancaonin N was intraperitoneally injected at a dose of 10 mg/kg or 30 mg/kg, and dexamethasone was intraperitoneally injected at a dose of 3 mg/kg as a positive control group. In addition, the control and vehicle groups were intraperitoneally injected with 4% DMSO in which gancaonin N was dissolved. Then, 10 µg/50 µL of LPS was intratracheally administered to the mice except for the control group one hour later (the control group mice were administered 50 µL of PBS), and the mice were sacrificed 12 hours later.
RAW264.7 cells and A549 cells were dispensed into 6-well plates (1 × 10^6 cells/well) and cultured under conditions of 37°C and 5% CO2. […]
To specifically investigate whether gancaonin N can inhibit pro-inflammatory factors in a mouse model, the protein expression levels of COX-2, IL-1β, and TNF-α were measured by Western blotting as described in Examples 1 to 6 above.

COc1ccc(-c2coc3cc(O)c(CC=C(C)C)c(O)c3c2=O)c(O)c1 [gancaonin N, 5,7-dihydroxy-3-(2-hydroxy-4-methoxyphenyl)-6-(3-methylbut-2-enyl)chromen-4-one]
activity/protein expression levels of p38 ([1]; 5µM to 40 µM 2 hours before LPS treatment (FIG. 5B)): significantly reduced | amount of gancaonin N at which the inhibitory effect on the activity/protein expression levels of p38 was most excellent ([1]; LPS, tested 5µM to 40 µM): 20 µM | cell viability [2]: did not decrease | mRNA expression of TNF-α [3]: significantly inhibited | protein expression level of IL-1β in lung [4]: significantly reduced
